Legend:
Format in all cases: in vivo
[1] = system: velvetleaf (Abutilon theophrasti); assay: Test G Post-Emergence Protocol; conditions: Abutilon theophrasti, post-emergence, 312 h, read-out: Velvetleaf damage rating
Method in brief: (§1)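 Eight days post-sowing, plants received a spray of test compound (acetone/water 50:50, 0.5% Tween 20) at 15.625, 62.5 or 250 g/ha. Glasshouse regime thereafter: 24/16 °C, 14 h light, 65% humidity. Assessment after 13 days on a 0–100 damage scale.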

[2] = system: giant foxtail (Setaria faberi); assay: Test G Post-Emergence Protocol; conditions: Setaria faberi, post-emergence, 312 h, read-out: Foxtail, Giant damage rating
Method in brief: as §1

[3] = system: corn (Zea mays); assay: Test G Post-Emergence Protocol; conditions: Zea mays, post-emergence, 312 h, read-out: Corn damage rating
Method in brief: as §1

[4] = system: ivy-leaved morning glory (Ipomoea hederacea); assay: Test G Post-Emergence Protocol; conditions: Ipomoea, post-emergence, 312 h, read-out: Morningglory, Ivy-leaved damage rating
Method in brief: as §1

[5] = system: redroot pigweed (Amaranthus retroflexus); assay: Test G Post-Emergence Protocol; conditions: Amaranthus retroflexus, post-emergence, 312 h, read-out: Pigweed, Redroot damage rating
Method in brief: as §1

[6] = system: barnyardgrass (Echinochloa crus-galli); assay: Test G Post-Emergence Protocol; conditions: Echinochloa crus-galli, post-emergence, 312 h, read-out: Barnyardgrass damage rating
Method in brief: as §1

[7] = system: velvetleaf (Abutilon theophrasti); assay: Test G Pre-Emergence Protocol; conditions: Abutilon theophrasti, pre-emergence, 312 h, evaluated after 13 days
Method in brief: (§2)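 Visual injury (0–100) at day 13 after a single pre-emergence spray. Rates: 15.625, 62.5, 250 g/ha in acetone–water 50:50 with 0.5% Tween 20. Growth conditions: 24/16° C, 14 h light, 65% humidity.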

[8] = system: giant foxtail (Setaria faberi); assay: Test G Pre-Emergence Protocol; conditions: Setaria faberi, pre-emergence, 312 h, evaluated after 13 days
Method in brief: as §2

[9] = system: corn (Zea mays); assay: Test G Pre-Emergence Protocol; conditions: Zea mays, pre-emergence, 312 h, evaluated after 13 days
Method in brief: as §2

[10] = system: ivy-leaved morning glory (Ipomoea hederacea); assay: Test G Pre-Emergence Protocol; conditions: Ipomoea, pre-emergence, 312 h, evaluated after 13 days
Method in brief: as §2

[11] = system: redroot pigweed (Amaranthus retroflexus); assay: Test G Pre-Emergence Protocol; conditions: Amaranthus retroflexus, pre-emergence, 312 h, evaluated after 13 days
Method in brief: as §2

[12] = system: barnyardgrass (Echinochloa crus-galli); assay: Test G Pre-Emergence Protocol; conditions: Echinochloa crus-galli, pre-emergence, 312 h, evaluated after 13 days
Method in brief: as §2

[13] = 15.625 g ai/ha, evaluated after 13 days (100=total damage to plant; 0=no damage to plant)
[14] = 62.5 g ai/ha, evaluated after 13 days, 100=total damage to plant, 0=no damage to plant
[15] = 250 g ai/ha, evaluated after 13 days, 100=total damage to plant, 0=no damage to plant

Compound `CN1C[C@H](c2ccc(C(F)(F)F)cc2)[C@@H](C(=O)Nc2cccc3ccsc23)C1=O` (racemic) [Compound 1757] has a pest or weed control at 15.625 g/ha [1, 13] of 0%, a pest or weed control at 62.5 g/ha [1, 14] of 0% and a pest or weed control at 250 g/ha [1, 15] of 0%. The pest or weed control at 15.625 g/ha [2, 13] was 0%, the pest or weed control at 62.5 g/ha [2, 14] was 20% and the pest or weed control at 250 g/ha [2, 15] was 60%. The plant injury at 15.625 g/ha [3, 13] was 0%, the plant injury at 62.5 g/ha [3, 14] was 0% and the plant injury at 250 g/ha [3, 15] was 0%. The pest or weed control at 15.625 g/ha [4, 13] was 0%, the pest or weed control at 62.5 g/ha [4, 14] was 0% and the pest or weed control at 250 g/ha [4, 15] was 10%. It also gave a pest or weed control at 15.625 g/ha [5, 13] of 0%, a pest or weed control at 62.5 g/ha [5, 14] of 0% and a pest or weed control at 250 g/ha [5, 15] of 0%. For the same compound, the pest or weed control at 15.625 g/ha [6, 13] was 0%, the pest or weed control at 62.5 g/ha [6, 14] was 10% and the pest or weed control at 250 g/ha [6, 15] was 30%. It also gave a pest or weed control at 15.625 g/ha ([7]; 15.625 g ai/ha, read-out: Velvetleaf damage rating (100=total damage to plant; 0=no damage to plant)) of 0%, a pest or weed control at 62.5 g/ha ([7]; 62.5 g ai/ha, 100=total damage to plant, 0=no damage to plant, read-out: Velvetleaf damage rating) of 0% and a pest or weed control at 250 g/ha ([7]; 250 g ai/ha, read-out: Velvetleaf damage rating (100=total damage to plant; 0=no damage to plant)) of 0%. The pest or weed control at 15.625 g/ha ([8]; 15.625 g ai/ha, read-out: Foxtail, Giant damage rating (100=total damage to plant; 0=no damage to plant)) was 0%, the pest or weed control at 62.5 g/ha ([8]; 62.5 g ai/ha, 100=total damage to plant, 0=no damage to plant, read-out: Foxtail, Giant damage rating) was 30% and the pest or weed control at 250 g/ha ([8]; 250 g ai/ha, read-out: Foxtail, Giant damage rating (100=total damage to plant; 0=no damage to plant)) was 70%. It also gave a plant injury at 15.625 g/ha ([9]; 15.625 g ai/ha, read-out: Corn damage rating (100=total damage to plant; 0=no damage to plant)) of 0%, a plant injury at 62.5 g/ha ([9]; 62.5 g ai/ha, 100=total damage to plant, 0=no damage to plant, read-out: Corn damage rating) of 0% and a plant injury at 250 g/ha ([9]; 250 g ai/ha, read-out: Corn damage rating (100=total damage to plant; 0=no damage to plant)) of 0%. For the same compound, the pest or weed control at 15.625 g/ha ([10]; 15.625 g ai/ha, read-out: Morningglory, Ivy-leaved damage rating (100=total damage to plant; 0=no damage to plant)) was 0%, the pest or weed control at 62.5 g/ha ([10]; 62.5 g ai/ha, 100=total damage to plant, 0=no damage to plant, read-out: Morningglory, Ivy-leaved damage rating) was 0% and the pest or weed control at 250 g/ha ([10]; 250 g ai/ha, read-out: Morningglory, Ivy-leaved damage rating (100=total damage to plant; 0=no damage to plant)) was 0%. For the same compound, the pest or weed control at 15.625 g/ha ([11]; 15.625 g ai/ha, read-out: Pigweed, Redroot damage rating (100=total damage to plant; 0=no damage to plant)) was 0%, the pest or weed control at 62.5 g/ha ([11]; 62.5 g ai/ha, 100=total damage to plant, 0=no damage to plant, read-out: Pigweed, Redroot damage rating) was 0% and the pest or weed control at 250 g/ha ([11]; 250 g ai/ha, read-out: Pigweed, Redroot damage rating (100=total damage to plant; 0=no damage to plant)) was 0%. It also gave a pest or weed control at 15.625 g/ha ([12]; 15.625 g ai/ha, read-out: Barnyardgrass damage rating (100=total damage to plant; 0=no damage to plant)) of 0%, a pest or weed control at 62.5 g/ha ([12]; 62.5 g ai/ha, 100=total damage to plant, 0=no damage to plant, read-out: Barnyardgrass damage rating) of 10% and a pest or weed control at 250 g/ha ([12]; 250 g ai/ha, read-out: Barnyardgrass damage rating (100=total damage to plant; 0=no damage to plant)) of 10%.

Source: patent US12077503B2, “Substituted cyclic amides and their use as herbicides” (FMC CORPORATION, priority 2015, dated 2024)
